Where two headings read alike, the source gives them in different places.
Key:
[1] = tested on: P. aeruginosa; conditions: for MIC: P. aeruginosa; for GROWTH: 24 hours, replicate columns
Protocol: (§1) Experiments were conducted to assess the minimum inhibitory concentration (MIC) both for sodium salt of EDTA that comprises tetra-sodium EDTA and Ethanol. […] Clear solution indicates no growth.
(§2) The following solutions were prepared to evaluate the MIC values of sodium salt of EDTA that comprises tetra-sodium EDTA (TEDTA) and Ethanol.

[2] = tested on: C. albicans; conditions: for MIC: C. albicans; for GROWTH: 24 hours, replicate columns
Protocol: as §1, §2

[3] = tested on: P. aeruginosa; assay: Synergy evaluation, checkerboard titration, macro-dilution; assay type: cell-based
Protocol: (§3) The first set of experiments conducted, were screening experiments using checkerboard titration strategy to assess if the combinations fall within a range having an Fractional Inhibitory Concentration (FIC) index value of ≤1. The method used was a NCCLS macro-dilution procedure.
(§4) The Checkerboard Titration method was used to assess the interactions between TEDTA and Ethanol. […] During this experiment, TEDTA and Ethanol were tested in the combinations to assess if the combinations have a Fractional Inhibitory Concentration (FIC) index of ≤1. The following concentrations were tested:
(§5) Fractional Inhibitory Concentration (FIC) is defined as the MIC of the compound in combination divided by the MIC of the compound alone. If the FIC index is ≤0.5, the combination is interpreted to be synergistic; <1 but >0.5—as partially synergistic; =1 as additive; >1 but <4 as indifferent; and ≥4 as antagonistic. In order to calculate the FIC index the following calculations are performed for compounds A and B:
(§6) FIC-A=(MIC of A in combination)/(MIC of A alone)
(§7) FIC-B=(MIC of B in combination)/(MIC of B alone)
(§8) FIC-combination=FIC-A+FIC-B
(§9) The following concentrations were tested:
(§10) The MIC-TEDTA (MIC of TEDTA in combination with Ethanol), a minimum concentration of TEDTA, while in combination with Ethanol, that inhibited the growth of P. aeruginosa in MHB was found. In order to determine the MIC-Ethanol (MIC of Ethanol in combination with TEDTA), a minimum concentration of Ethanol, while in combination with TEDTA, that inhibited the growth of P. aeruginosa in MHB was found.

[4] = tested on: S. aureus; assay: Minimum inhibitory concentration (MIC) via macro-dilution method; conditions: for MIC: S. aureus; for GROWTH: 24 hours, replicate columns
[5] = tested on: S. aureus; assay: Synergy evaluation, checkerboard titration, macro-dilution; assay type: cell-based
Protocol: as §3, §4, §5, §6, §7, §8
In order to determine the MIC-Ethanol (MIC of Ethanol in combination with TEDTA), a minimum concentration of Ethanol, while in combination with TEDTA, which inhibited the growth of S. aureus in MHB was found.

[6] = tested on: C. albicans; assay: as above; assay type: cell-based
Protocol: as §3, §4, §5, §6, §7, §8, §9
as §10, with “C. albicans” for “P. aeruginosa”

[7] = tested on: C. albicans; assay: Rate kill assay, plate count (Part A synergy; Part B pH and D-Mannitol effect); assay type: cell-based; conditions: D-Mannitol 0.73 wt % alone, both at pH 7.5 & 11
Protocol: The second set of experiments conducted, were “Rate Kill” assay. A rate kill assay can confirm whether combinations are synergistic or not. In these assays the formulations are first exposed to organisms for a desired time (for the current formulations readings were taken at 1, 3 and 24 hours). Then a sample of the organisms and formulation mixture is serially diluted and plated to assess the log reduction. The organisms are allowed to grow and are checked for growth/log reduction after 24 hrs. The log reduction values obtained for individual components are compared with the combinations.
The following solutions were prepared:
Each solution was then combined with C. albicans and the log reduction of the C. albicans was measured at 1, 3 and 24 hours.

[8] = tested on: S. aureus; assay: as above; assay type: cell-based; conditions: D-Mannitol 0.73 wt % alone, both at pH 7.5 & 11
Protocol: The second set of experiments conducted, were “Rate Kill” assay. […] In these assays the formulations are first exposed to organisms for a desired time (for the current formulations readings were taken at 1, 3 and 24 hours). Then a sample of the organisms and formulation mixture is serially diluted and plated to assess the log reduction. The organisms are allowed to grow and are checked for growth/log reduction after 24 hrs. The log reduction values obtained for individual components are compared with the combinations.
Each solution was then combined with S. aureus and the log reduction of the S. aureus was measured at 1, 3 and 24 hours.

[9] = tested on: P. aeruginosa; assay: as above; assay type: cell-based
Protocol: In these assays the formulations are first exposed to organisms for a desired time (for the current formulations readings were taken at 1, 3 and 24 hours). Then a sample of the organisms and formulation mixture is serially diluted and plated to assess the log reduction. The organisms are allowed to grow and are checked for growth/log reduction after 24 hrs. The log reduction values obtained for individual components are compared with the combinations.
Each solution was then combined with P. aeruginosa and the log reduction of the P. aeruginosa was measured at 1, 3 and 24 hours.

[10] = up to 3000 mg infused over 3 hours, daily, treatment of hyper-calcemia in humans; cited from earlier work
[11] = TEDTA alone, listed as Sodium Salt(s) of EDTA
[12] = S. aureus in Mueller Hinton Broth
[13] = TEDTA 0.06 WT % individual (0.25 MIC)
[14] = TEDTA 0.12 WT % individual (0.50 MIC)
[15] = TEDTA 0.24 WT % individual (1.00 MIC)

In the case of O=C([O-])CN(CCN(CC(=O)[O-])CC(=O)[O-])CC(=O)[O-].[Na+].[Na+].[Na+].[Na+] [TEDTA, tetra-sodium EDTA], the MIC [1, 11] is reported as 0.24 WT %, the GROWTH ([1]; TEDTA 0.125 WT %) is reported as “+VE” and the GROWTH ([1]; TEDTA 0.250 WT %) is reported as “−VE”. For the same compound, the GROWTH ([1]; TEDTA 0.500 WT %) was “−VE”, the GROWTH ([1]; TEDTA 1.000 WT %) was “−VE” and the GROWTH ([1]; TEDTA 1.500 WT %) was “−VE”. For the same compound, the MIC [2, 11] was 0.24 WT %, the GROWTH ([2]; TEDTA 0.015 WT %) was “+VE” and the GROWTH ([2]; TEDTA 0.030 WT %) was “+VE”. For the same compound, the GROWTH ([2]; TEDTA 0.060 WT %) was “+VE”, the GROWTH ([2]; TEDTA 0.120 WT %) was “+VE” and the GROWTH ([2]; TEDTA 0.240 WT %) was “−VE”. The “MIC-TEDTA (MIC of TEDTA in combination with Ethanol)” value (“MIC-TEDTA” for short) ([3]; P. aeruginosa in MHB) was 0.12 % (w/v), the FIC-TEDTA ([3]; P. aeruginosa, 0.12/0.25) was 0.48 and the GROWTH ([3]; TEDTA 0.06 WT % individual (0.24 MIC)) was “+VE”. For the same compound, the GROWTH ([3]; TEDTA 0.12 WT % individual (0.48 MIC)) was “+VE”, the GROWTH ([3]; TEDTA 0.24 WT % individual (0.96 MIC)) was “−VE” and the MIC [4, 11] was 0.24 WT %. For the same compound, the GROWTH ([4]; TEDTA 0.015 WT %) was “+VE”, the GROWTH ([4]; TEDTA 0.030 WT %) was “+VE” and the GROWTH ([4]; TEDTA 0.060 WT %) was “+VE”. For the same compound, the GROWTH ([4]; TEDTA 0.120 WT %) was “+VE”, the GROWTH ([4]; TEDTA 0.240 WT %) was “−VE” and the “MIC-TEDTA” value [5, 12] was 0.06 % (w/v). The FIC-TEDTA ([5]; S. aureus, 0.06/0.24) was 0.25, the GROWTH [5, 13] was “+VE” and the GROWTH [5, 14] was “+VE”. The GROWTH [5, 15] was “−VE”, the “MIC-TEDTA” value ([6]; C. albicans in MHB) was 0.06 % (w/v) and the FIC-TEDTA ([6]; C. albicans, 0.06/0.24) was 0.25. The GROWTH [6, 13] was “−VE”, the GROWTH [6, 14] was “−VE” and the GROWTH [6, 15] was “−VE”.
In the case of OC[C@@H](O)[C@@H](O)[C@H](O)[C@H](O)CO [D-Mannitol], the log reduction [7] is reported as > 5 log, the log reduction [8] is reported as > 4 log and the log reduction ([9]; P. aeruginosa, D-Mannitol 0.73 wt % alone, both at pH 7.5 & 11) is reported as > 5 log. For the same compound, the “LOG REDUCTION AGAINST P. aeruginosa” value ([9]; footnote summary, D-mannitol alone, 0.73 wt %) was “D-MANNITOL EXHIBITS > 5 LOG REDUCTION AGAINST P. aeruginosa”.
With CCO [ETHANOL, Ethanol] the GROWTH ([1]; ETHANOL 3.13 VOL %) was “+VE”, the GROWTH ([1]; ETHANOL 6.25 VOL %) was “−VE” and the GROWTH ([1]; ETHANOL 12.50 VOL %) was “−VE”. For the same compound, the GROWTH ([1]; ETHANOL 25.00 VOL %) was “−VE”, the GROWTH ([1]; ETHANOL 50.00 VOL %) was “−VE” and the MIC ([1]; ethanol alone) was 6.25 VOL %. The MIC ([2]; ethanol alone) was 3.125 VOL %, the GROWTH ([2]; ETHANOL 3.125 VOL %) was “−VE” and the GROWTH ([2]; ETHANOL 6.25 VOL %) was “−VE”. For the same compound, the GROWTH ([2]; ETHANOL 12.50 VOL %) was “−VE”, the GROWTH ([2]; ETHANOL 25.00 VOL %) was “−VE” and the GROWTH ([2]; ETHANOL 50.00 VOL %) was “−VE”. For the same compound, the GROWTH ([3]; ETHANOL 1.563 VOL % individual (0.25 MIC)) was “+VE”, the GROWTH ([3]; ETHANOL 3.125 VOL % individual (0.50 MIC)) was “+VE” and the GROWTH ([3]; ETHANOL 6.250 VOL % individual (1.00 MIC)) was “−VE”. The “MIC-Ethanol (MIC of Ethanol in combination with TEDTA)” value ([3]; P. aeruginosa in MHB) was 3.125 % (v/v), the FIC-Ethanol ([3]; P. aeruginosa, 3.125/6.25) was 0.5 and the GROWTH ([4]; ETHANOL 3.13 VOL %) was “+VE”. For the same compound, the GROWTH ([4]; ETHANOL 6.25 VOL %) was “+VE”, the GROWTH ([4]; ETHANOL 12.50 VOL %) was “+VE” and the GROWTH ([4]; ETHANOL 25.00 VOL %) was “−VE”. For the same compound, the GROWTH ([4]; ETHANOL 50.00 VOL %) was “−VE”, the MIC ([4]; ethanol alone) was 25 VOL % and the GROWTH ([5]; ETHANOL 6.250 VOL % individual (0.25 MIC)) was “+VE”. For the same compound, the GROWTH ([5]; ETHANOL 12.500 VOL % individual (0.50 MIC)) was “+VE”, the GROWTH ([5]; ETHANOL 25.000 VOL % individual (1.00 MIC)) was “−VE” and the “MIC-ETH (MIC of Ethanol in combination with TEDTA)” value [5, 12] was 6.25 % (w/v). For the same compound, the FIC-Ethanol ([5]; S. aureus, 6.25/25) was 0.25, the “MIC-Ethanol (MIC of Ethanol in combination with TEDTA)” value ([6]; C. albicans in MHB) was 0.781 % (v/v) and the FIC-Ethanol ([6]; C. albicans, 0.781/3.125) was 0.25. For the same compound, the GROWTH ([6]; ETHANOL 0.781 VOL % individual (0.25 MIC)) was “+VE”, the GROWTH ([6]; ETHANOL 1.563 VOL % individual (0.50 MIC)) was “+VE” and the GROWTH ([6]; ETHANOL 3.125 VOL % individual (1.00 MIC)) was “−VE”.
For O=C([O-])CN(CCN(CC(=O)[O-])CC(=O)O)CC(=O)O.[Na+].[Na+] [EDTA disodium], the “tolerability of infused dose” value [10] is listed as “well tolerated”.

— patent US20190021321A1, “BROAD SPECTRUM ANTIMICROBIAL & ANTICOAGULANT COMPOSITION” (priority 2016, published 2019)
